Reference: patent US7728131B2, “Amide derivative and medicine” (Nippon Shinyaku Co., Ltd., priority 2003, dated 2010)
Like-named read-outs stand apart in the source and are kept apart here.

Columns and labels:
[1] = test system: U937 cells; test: Cell growth inhibitory effect, U937 cells (Cell counting Kit-8, 72 hours); type: cell-based; details: Homo sapiens, U-937, BCR-ABL negative U937 cells, WST-8 absorbance
Protocol: The plate was incubated in a CO2 incubator overnight. […] The plate was incubated in a CO2 incubator. After 72 hours, 20 μl

[2] = test system: K562 cells; test: Cell growth inhibitory effect, K562 cells (Cell counting Kit-8, 72 hours); details: for IC50: Homo sapiens, K562, 72 h, read-out: K562 cells (IC50 value: μM); for Ratio (U937 cells/K562 cells): IC50 U937 cells / IC50 K562 cells;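 on all read-outs here: Read-out is formazan absorbance at 450 nm from WST-8 reduction after a 3 h color reaction, with K562 and U937 cells grown in 96-well plates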
Protocol: of Cell counting Kit-8 (5 mmol/l WST-8, 0.2 mmol/1 1-Methoxy PMS, 150 mmol/l NaCl) (manufactured by Dojindo) was added to each well. After reaction for color development in a CO2 incubator for 3 hours, an absorbance of formazan, generated by reduction of WST-8 was determined at 450 nm using Multi-level counter ARVOsx (manufactured by Wallac).
K562 cells and U937 cells (purchased from American Type Culture Collection) were cultured in a RPMI-1640 medium (manufactured by Sigma) containing 10% (v/v) fetal calf serum (FCS) (manufactures by Sigma) (RPMI-1640/FCS). K562 cells and U937 cells were seeded at a density of 5000 cells/100 μl/well and 4000 cells/100 μl/well in each of 96-hole-plate (manufactured by costar), respectively. The plate was incubated in a CO2 incubator overnight. […] The resulting solution was diluted 500 times in a RPMI-1640/FCS medium and then 100 μl of the diluent was added in a well. The plate was incubated in a CO2 incubator. After 72 hours, 20 μl

[3] = continuation of Table 3, read-out: U937 cells (IC50 value: nμM)
[4] = read-out: U937 cells (IC50 value: μM)

Compound	IC50 [1, 3]	melting point	IC50 [2]	Ratio (U937 cells/K562 cells) [2]	IC50 [1, 4]
Cc1ccc(NC(=O)c2ccc(CN3CCN(C)CC3)c(C(F)(F)F)c2)cc1Nc1cc(-c2cccnc2)ncn1.Cl [Example 31, 4-(1-methylpiperazin-4-ylmethyl)-3-trifluoromethyl-N-{4-methyl-3-[6-(3-pyridyl)pyrimidin-4-ylamino]phenyl}benzamide hydrochloride]	2.1 µM	190 to 194 °C (dec.)	0.0069 µM	304	
Cc1ccc(NC(=O)c2ccc(CN3C[C@@H](C)[C@H](N(C)C)C3)c(C(F)(F)F)c2)cc1Nc1nccc(-c2cncnc2)n1.Cl [Example 67, (−)-4-[(3S,4R)-3-(dimethylamino)-4-methylpyrrolidin-1-ylmethyl]-3-trifluoromethyl-N-{4-methyl-3-[4-(5-pyrimidinyl)pyrimidin-2-ylamino]phenyl}benzamide hydrochloride]	6.5 µM	164 to 174 °C (dec.)	0.0077 µM	844	
Cc1ccc(NC(=O)c2ccc(CN3CCN(C)CC3)c(C(F)F)c2)cc1Nc1nccc(-c2cncnc2)n1.Cl [Example 2, 3-difluoromethyl-4-(4-methylpiperazin-1-ylmethyl)-N-{4-methyl-3-[4-(5-pyrimidinyl)pyrimidin-2-ylamino]phenyl}benzamide hydrochloride]		264 °C (dec.)	0.0028 µM	5357	15 µM
Cc1ccc(NC(=O)c2ccc(OC3CCN(C)CC3)c(C(F)(F)F)c2)cc1Nc1nccc(-c2cncnc2)n1.Cl [Example 10, 4-(1-methylpiperidin-4-yloxy)-3-trifluoromethyl-N-{4-methyl-3-[4-(5-pyrimidinyl)pyrimidin-2-ylamino]phenyl}benzamide hydrochloride]		≥ 275 °C	0.0021 µM	3857	8.1 µM
Cc1ccc(NC(=O)c2ccc(CN3CCNCC3)c(C(F)(F)F)c2)cc1Nc1nccc(-c2cncc(Br)c2)n1.Cl [Example 40, 4-(1-piperazinylmethyl)-3-trifluoromethyl-N-{3-[4-(5-bromopyridin-3-yl)pyrimidin-2-ylamino]-4-methylphenyl}benzamide hydrochloride]	4.4 µM	176 to 182 °C (dec.)	0.0039 µM	1128	
Cc1ccc(NC(=O)c2ccc(CC3CCN(C)CC3)c(C(F)(F)F)c2)cc1Nc1nccc(-c2cncnc2)n1.Cl [Example 8, 4-(1-methylpiperidin-4-ylmethyl)-3-trifluoromethyl-N-{4-methyl-3-[4-(5-pyrimidinyl)pyrimidin-2-ylamino]phenyl}benzamide hydrochloride]		227 to 231 °C (dec.)	0.00098 µM	4694	4.6 µM
Cc1ccc(NC(=O)c2ccc(CN3CC[C@H](N4CCCC4)C3)c(C(F)(F)F)c2)cc1Nc1nccc(-c2cncnc2)n1.Cl [Example 58, (−)-4-[(S)-3-(1-pyrrolidinyl)pyrrolidin-1-ylmethyl]-3-trifluoromethyl-N-{4-methyl-3-[4-(5-pyrimidinyl)pyrimidin-2-ylamino]phenyl}benzamide hydrochloride]	9.4 µM	168 to 171 °C	0.0047 µM	2000	
Cc1ccc(NC(=O)c2ccc(CN3CCN(C)C(C(N)=O)C3)c(C(F)(F)F)c2)cc1Nc1nccc(-c2cncnc2)n1.Cl (centres unmarked) [Example 50, 4-(3-carbamoyl-4-methylpiperazin-1-ylmethyl)-3-trifluoromethyl-N-{4-methyl-3-[4-(5-pyrimidinyl)pyrimidin-2-ylamino]phenyl}benzamide hydrochloride]	16 µM	203 to 208 °C	0.0046 µM	3478	
